Test results from patent publication US20200270310A1, “MAFG AS A POTENTIAL THERAPEUTIC TARGET TO RESTORE CHEMOSENSITIVITY IN PLATINUM-RESISTANT CANCER CELLS” (FUNDACÓIN PARA LA INVESTIGACIÓN BIOMÉDICA DEL HOSPITAL …, priority 2017, published 2020).
“And” between values parts separate entries of the source, which are not always exact repeats. Equal values may be shown once.

How the values were obtained:
LoVo cells = assay: Viability to CDDP; type: cell-based, human
Source text: (§1) Fifteen human cancer cell lines were purchased from ATCC (Manassas, Va.) or ECACC (Sigma-Aldrich, Spain) and cultured as recommended. The CDDP-resistant variants A2780R and OVCAR3R were selected after a final exposure to […] cisplatin, respectively (Farma Ferrer, Spain), as previously described for H23R and H460R variants The additional 11 human cell lines, PC-3, LNCAP, H727, HT29, A549, BT474, LoVo, IMIM-PC-2, SKOV3, SW780 and IMR90, were used for further validations. For viability assays cells were treated with increasing doses of CDDP. The epigenetic reactivation drugs 5Aza-2deoxycytidine (5Aza-dC) and trichostatin A (TSA) (Sigma-Aldrich, Spain) were used at […] and at 300nM respectively.

H23R cells [1] = assay: ROS production after CDDP exposure, resistant cells; type: cell-based, human
Procedure: FIG. 2. Viability assays and Reactive Oxygenated Species detection after CDDP treatment in H23 cell lines. (A) Viability to CDDP in H23S (left) and H23R (right) at 24, 48 and 72 hours and 6 concentrations of CDDP measured by MTT assay. (B) Increment of ROS production in H23S (left) and H23R (right) after 24, 48 and 72 hours of CDDP treatment. $: 72h (vs Basal).
H23/A2780 cells were cultured in 96-well black plates at density of 10,000 cells/well. Cells were treated with 6 different doses of CDDP for 24, 48 and 72 h in RPMI containing 10% FBS. Then treatments were removed and cells were loaded with the fluorescent probe 2′,7′-dichlorodihydrofluorescein diacetate (H2DCFDA) (10 μM) for 45 minutes in RPMI medium (FBS free). Cells were washed twice with RPMI (10% FBS), and fluorescence was recorded in a Fluostar Optima, each hour, over 4 hours period. […] ROS production was calculated dividing the mean H2DCFDA fluorescence by the mean viability. […] All experiments included cells treated with RPMI alone (Basal), and one well without cells as fluorescence basal.
H23/A2780 cells were cultured in 96-well black plates at density of 10,000 cells/well. […] Cells were washed twice with RPMI (10% FBS), and fluorescence was recorded in a Fluostar Optima at 520 nm after excitation at 485 nm. […] ROS production was calculated dividing the mean H2DCFDA fluorescence by the mean viability. […]

H23R cells [2] = assay: Viability to CDDP after aptamer transfection (resistance index); type: cell-based, human; details: comparison value for apMAFG6F
Procedure: FIG. 6. Viability curves combining the best dose of aptamers (25nM) and increasing doses of CDDP. Each experimental group was exposed for 72 h to 6 different CDDP concentrations after aptamers transfection; data were normalized to each untreated control, set to 100% and represent the mean±SD of at least 3 independent experiments performed in quadruplicate at each drug concentration for each cell line analyzed 25nM of aptamers and increasing doses of CDDP in H23S/R cells.
Once identified the best dose of aptamers, cells were transfected with aptamers and treated with increased doses of CDDP to assay viability and ROS production as mentioned above. In parallel, for all the experiments, cells were seeded in 24-well plates for aptamers extraction and confirmation of aptamers transfection.
HEK293 and H23S/R cells were seeded into 96-well plates then transfected with 5, 12.5, 25, 75 and 100 nM of MAFG aptamers or treated with PBS-Mg using Jet Pei PolyPlus transfection reagent (PolyPlus Transfection, USA). The dose of 25 nM aptamer was afterwards used in combination with increased doses of CDDP to assay viability and ROS production as described above. To confirm the aptamer-transfection efficiency cells were seeded in 24-well plates for aptamer isolation and confirmation of aptamer transfection by quantitative analysis. A Myc-DDK-tagged ORF clone of MAFG the negative control pCMV6 were used for in transient transfection (OriGene, USA) in combination with MAFG-aptamers following the same procedure.

H23R cells [3] = assay: Viability to CDDP, resistant index; type: cell-based, human; details: versus H23S
Source text: as §1

A2780-R cells = assay: Viability to CDDP, resistant index; type: cell-based, human; details: versus parental A2780
Source text: as §1

H460R cells = assay: Viability to CDDP, resistant index; type: cell-based, human; details: versus parental H460
Source text: as §1

OVCAR3-R cells = assay: Viability to CDDP, resistant index; type: cell-based, human; details: versus parental OVCAR3
Source text: as §1

[4] = test system: human MAFG peptides M1-M10; assay: ELONA of aptamers with 10 MAFG peptides; type: binding; details: digoxigenin aptamer 20 nM, 1 μg peptide, absorbance at 405 nm
Procedure: FIG. 9. Characterization of the interaction of aptamers with MAFG. ELONAS in which the Aptamers bound to digoxigenin (20 nM) were incubated 1 hour at 37° C. with 10 peptides (1 μg) previously attached to the plate overnight. After incubating 1 hour with antidigoxigenin-Peroxidase 1/1000, ABTS was added and at 10 minutes the absorbance at 405 nm was measured.
In order to identify compounds of the invention and starting from the amino acidic sequence of human MAFG (NCBI Reference Sequence: NP_116100.2) of: SEQ ID NO 2: […]); we designed the following 10 peptides (please refer to table below):
Peptide M4, amino acids 49-68 corresponds to the basic MAFG region containing the tyrosine residue (Tyr64), as well as the arginine residue (Arg57) required for binding to the DNA, in addition to a nuclear localization signal.

H23R cells [5] = assay: Semiquantitative RT-PCR of MAFG and HMOX1 in aptamer-transfected cells after platinum treatment; type: cell-based, human; details: aptamer-transfected H23R after platinum treatment vs H23R
Procedure: For semiquantitative RT-PCR, 500 ng of total RNA isolated from cell lines was used for RT reaction using PrimeScript™ RT Master (Clontech-Takara, USA) and subsequent semiquantitative PCR using Promega PCR Mix (Promega, USA) as previously described. Relative quantification was performed by measuring the intensity of band amplified using ImageJ software. Primers for HMOX1 (F: 5′-[…]-3′; R: 5′-[…]-3′), MAFG (F: 5′-[…]-3′; R: 5′-[…]-3′) and GAPDH (F: 5′-GAGAGACCCTCACTGCTG-3′; R: 5′-[…]-3′) were designed to include the probe from the array in order to assure the correct transcript identification.

| IC50 of CDDP (LoVo cells) | Molecule | ROS production versus basal untreated cells (H23R cells [1]; 3.00 μg/ml CDDP) [%] | ROS after treatment with the drug (H23R cells [1]; Example 1) | CDDP resistance index without aptamer (H23R cells [2]) | Resistant-Index (RI) to CDDP (H23R cells [3]) | Resistant-Index (RI) to CDDP (A2780-R cells) | Resistant-Index (RI) to CDDP (H460R cells) | Resistant-Index (RI) to CDDP (OVCAR3-R cells) | interaction of aptamers with the 10 MAFG peptides by ELONA [4] | HMOX1 expression (H23R cells [5]) | MAFG expression (H23R cells [5]) |
| --- | --- | --- | --- | --- | --- | --- | --- | --- | --- | --- | --- |
| over 2 μg/ml | [NH2][Pt]([NH2])([Cl])[Cl] [CDDP, Cisplatin] | 159 | no changes | 2.63 | 3.35 and > 3 | 3.00 | 2.50 | 2.96 |  |  |  |
|  | GCGGATGAAGACTGGTGTCGATGCATGTGTAGTGCATTTCGAGCCGTTCTATTGGTGTGCCCTAAATACGAGCAAC (nucleic acid, chemistry not given here, DNA aptamer selected against the MAFG protein by SELEX) GCGGATGAAGACTGGTGTCGATGCATGTGTAGTGCATTTCGAGCCGTTCTATTGGTGTGCCCTAAATACGAGCAAC |  |  |  |  |  |  |  | recognized peptide M4 | decrease in their expression | decrease in their expression |
